Where “and” joins values, the source holds several entries; their conditions need not be identical. Equal entries are not always repeated.
Assays:
[1] = tested on: total specific airway resistance (sRaw); assay: Phase I, healthy male subjects, 7 days inhalation: total specific airway resistance sRaw by bodyplethysmography (C-4.1); type: in vivo, human
Procedure: Healthy White male subjects, aged 18 to 45 years and with a body mass index (BMI) above/equal 18.5 and below/equal 29.9 kg/m2 were treated in a clinical pharmacological phase I study on seven days with inhaled once daily doses of 480 μg or 1000 μg or 2000 μg (2 capsules of 1000 μg) (nominal dose) of dry powder formulations of example 2 or Placebo. The subjects inhaled the drug powder from capsules (see under D-1, e.g. tables 22 and 23) inserted into a handheld inhalation device by one deep inhalative breath. The dry powder formulation of the drug is dispersed into the airstream and fine particles are transported into the deep parts of the lung where it is intended to cause a vasodilation of the blood vessels in PH patients for a substantial reduction of increased blood pressure in the central pulmonary blood vessels in PAH patients or other subtypes of PH. This effect cannot be shown in subjects with healthy lungs. In addition inhaled drug causes a dilation of the bronchial airways and thus also improves disease states of lung diseases in PH patients with pathological bronchoconstriction. This effect was measured via bodyplethysmography as reduction of Specific Airway Resistance in healthy subjects. After the deep inhalative breath the subjects hold breath for 2 seconds, so that the dry powder drug condenses from the airstream onto the surface of the deeper lung areas where it is deposited close to its site of intended pharmacological action. The drug dissolutes over the day and equilibrates the lung via lining fluid.

[2] = tested on: thromboxane analog U46619 induced PAH in minipigs; assay: PAH minipig model: comparison with and on top of standard of care (bosentan, sildenafil, riociguat); type: in vivo, Göttingen minipig; settings: for BP decrease % / PAP decrease %: % change per animal
Excerpt: Efficacy of inhaled comparative example 11 was compared with systemically applied bosentan, sildenafil and riociguat (see FIG. 53a) in the PAH minipig model. […] Therefore inhaled application of comparative example 11 offers clear benefits as systemic effects are avoided, compared to standard of care.

[3] = tested on: unilateral broncho-occlusion in anesthetized minipigs; assay: Unilateral broncho-occlusion minipig model: arterial oxygenation as proxy of VQ-mismatch, intrapulmonary selectivity (C-2.3); type: in vivo; settings: for % decrease delta PAP (maximal hypoxic PAP) / % increase AUCSaO2 (unwanted desaturation effect): mean, n = 4
Procedure: These effects were more pronounced 90 min after inhalation of comparative example 11 (second intervention cycles (inhal)). […] Thus, the mean % changes in maximal hypoxic PAP and associated % changes in area under the oxygen saturation curve [AUCSaO2] were compared (see FIG. 65) within the respective group. As reference cycles in each group, we used cycle 3 for the inhaled applications as well as cycle 4 for the i.v. applications.

plasma proteins = assay: Protein binding via Transil assay, dog plasma; type: in vitro ADME; settings: dog plasma
Excerpt: The distribution of a test substance between Transil® (phosphatidylcholine lipid bilayers immobilized on silica beads) and plasma is a characteristic feature of any pharmaceutical compound and is dependent on its extent of binding to plasma proteins. By comparing the distribution between Transil® and buffer with the distribution between Transil® and plasma of any species of interest, the unbound fraction in the plasma of the respective animal species can be calculated in vitro. The respective plasma and buffer concentrations were determined via a radioactivity analysis. A detailed description of the method and its validation was published by Schuhmacher et al. (2).

[4] = 30 μg/kg inhaled on top of Bosentan 1 mg/kg
[5] = 30 μg/kg inhaled on top of Riociguat 3 μg/kg/h
[6] = 30 μg/kg inhaled on top of Sildenafil 300 μg/kg/h
[7] = 30 μg/kg nominal dose inhaled, alone

## O=C(O)c1ccc(CCN(CCc2ccccc2OCc2ccc(-c3ccc(C(F)(F)F)cc3)cc2Cl)[C@H]2CCCc3nc(C(=O)O)ccc32)cc1 [example 2, (5S)-{[2-(4-Carboxyphenyl)ethyl][2-(2-{[3-chloro-4′-(trifluoromethyl)biphenyl-4-yl]methoxy}phenyl)-ethyl]amino}-5,6,7,8-tetrahydroquinoline-2-carboxylic acid]
[1]; 480 μg, 0 D 00 H 00 M
  total specific airway resistance, mean ± SD: 1.078 ± 0.375 kPa/sec
[1]; 480 μg, 0 D 02 H 00 M
  total specific airway resistance, mean ± SD: 0.839 ± 0.182 kPa/sec
[1]; 480 μg, 0 D 06 H 00 M
  total specific airway resistance, mean ± SD: 0.800 ± 0.187 kPa/sec
[1]; 480 μg, 2 D 02 H 00 M
  total specific airway resistance, mean ± SD: 0.883 ± 0.310 kPa/sec
[1]; 480 μg, 4 D 02 H 00 M
  total specific airway resistance, mean ± SD: 0.807 ± 0.200 kPa/sec
[1]; 480 μg, 6 D 04 H 00 M
  total specific airway resistance, mean ± SD: 0.798 ± 0.193 kPa/sec
[1]; 480 μg, 7 D 00 H 00 M
  total specific airway resistance, mean ± SD: 0.823 ± 0.274 kPa/sec
[1]; 480 μg, 7 D 02 H 00 M
  total specific airway resistance, mean ± SD: 0.777 ± 0.282 kPa/sec
[1]; 480 μg, 7 D 06 H 00 M
  total specific airway resistance, mean ± SD: 0.803 ± 0.280 kPa/sec
[1]; 480 μg, SCREENING
  total specific airway resistance, mean ± SD: 0.844 ± 0.327 kPa/sec
[1]; 480 μg, SCREENING 2
  total specific airway resistance, mean ± SD: 0.832 ± 0.280 kPa/sec
[1]; 480 μg, −0 D 18 H 00 M (pretreatment day)
  total specific airway resistance, mean ± SD: 0.921 ± 0.305 kPa/sec
[1]; 480 μg, −0 D 22 H 00 M (pretreatment day)
  total specific airway resistance, mean ± SD: 0.928 ± 0.392 kPa/sec
[1]; 480 μg, −1 D 00 H 00 M (pretreatment day)
  total specific airway resistance, mean ± SD: 0.939 ± 0.344 kPa/sec
[1]; 1000 μg, 0 D 00 H 00 M
  total specific airway resistance, mean ± SD: 0.967 ± 0.233 kPa/sec
[1]; 1000 μg, 0 D 02 H 00 M
  total specific airway resistance, mean ± SD: 0.859 ± 0.143 kPa/sec
[1]; 1000 μg, 0 D 06 H 00 M
  total specific airway resistance, mean ± SD: 0.824 ± 0.180 kPa/sec
[1]; 1000 μg, 2 D 02 H 00 M
  total specific airway resistance, mean ± SD: 0.797 ± 0.141 kPa/sec
[1]; 1000 μg, 4 D 02 H 00 M
  total specific airway resistance, mean ± SD: 0.853 ± 0.172 kPa/sec
[1]; 1000 μg, 6 D 04 H 00 M
  total specific airway resistance, mean ± SD: 0.787 ± 0.168 kPa/sec
[1]; 1000 μg, 7 D 00 H 00 M
  total specific airway resistance, mean ± SD: 0.917 ± 0.227 kPa/sec
[1]; 1000 μg, 7 D 02 H 00 M
  total specific airway resistance, mean ± SD: 0.764 ± 0.140 kPa/sec
[1]; 1000 μg, 7 D 06 H 00 M
  total specific airway resistance, mean ± SD: 0.787 ± 0.188 kPa/sec
[1]; 1000 μg, SCREENING
  total specific airway resistance, mean ± SD: 0.867 ± 0.376 kPa/sec
[1]; 1000 μg, SCREENING 2
  total specific airway resistance, mean ± SD: 1.009 ± 0.340 kPa/sec
[1]; 1000 μg, −0 D 18 H 00 M (pretreatment day)
  total specific airway resistance, mean ± SD: 0.901 ± 0.187 kPa/sec
[1]; 1000 μg, −0 D 22 H 00 M (pretreatment day)
  total specific airway resistance, mean ± SD: 0.903 ± 0.255 kPa/sec
[1]; 1000 μg, −1 D 00 H 00 M (pretreatment day)
  total specific airway resistance, mean ± SD: 0.996 ± 0.194 kPa/sec
[1]; 2000 μg, 0 D 00 H 00 M
  total specific airway resistance, mean ± SD: 0.947 ± 0.143 kPa/sec
[1]; 2000 μg, 0 D 02 H 00 M
  total specific airway resistance, mean ± SD: 0.677 ± 0.139 kPa/sec
[1]; 2000 μg, 0 D 06 H 00 M
  total specific airway resistance, mean ± SD: 0.651 ± 0.149 kPa/sec
[1]; 2000 μg, 2 D 02 H 00 M
  total specific airway resistance, mean ± SD: 0.748 ± 0.155 kPa/sec
[1]; 2000 μg, 4 D 02 H 00 M
  total specific airway resistance, mean ± SD: 0.709 ± 0.178 kPa/sec
[1]; 2000 μg, 6 D 04 H 00 M
  total specific airway resistance, mean ± SD: 0.722 ± 0.168 kPa/sec
[1]; 2000 μg, 7 D 00 H 00 M
  total specific airway resistance, mean ± SD: 0.844 ± 0.097 kPa/sec
[1]; 2000 μg, 7 D 02 H 00 M
  total specific airway resistance, mean ± SD: 0.716 ± 0.089 kPa/sec
[1]; 2000 μg, 7 D 06 H 00 M
  total specific airway resistance, mean ± SD: 0.730 ± 0.151 kPa/sec
[1]; 2000 μg, SCREENING
  total specific airway resistance, mean ± SD: 0.899 ± 0.150 kPa/sec
[1]; 2000 μg, SCREENING 2
  total specific airway resistance, mean ± SD: 0.957 ± 0.140 kPa/sec
[1]; 2000 μg, −0 D 18 H 00 M (pretreatment day)
  total specific airway resistance, mean ± SD: 0.943 ± 0.245 kPa/sec
[1]; 2000 μg, −0 D 22 H 00 M (pretreatment day)
  total specific airway resistance, mean ± SD: 0.933 ± 0.165 kPa/sec
[1]; 2000 μg, −1 D 00 H 00 M (pretreatment day)
  total specific airway resistance, mean ± SD: 0.962 ± 0.266 kPa/sec
[1]; 6 h after first dosing, all dose groups
  decrease of total specific airway resistance sRaw compared to baseline: −0.142 to −0.296 kPa/sec

## O=C(O)c1ccc(CCN(CCc2ccccc2OCc2ccc(-c3ccc(C(F)(F)F)cc3)cc2Cl)[C@H]2CCCc3nc(C(=O)O)ccc32)cc1 [comparative example 11, (5S)-5-{[2-(4-carboxyphenyl)ethyl][2-(2-{[3-chloro-4′-(trifluoromethyl)[biphenyl]-4-yl]methoxy}phenyl)ethyl]amino}-5,6,7,8-tetrahydroquinoline-2-carboxylic acid]
[2]; [4]
  BP decrease %: −12.8% and 3.6%
  PAP decrease %: −29.7% and −27.1%
[2]; [5]
  BP decrease %: 3.1% and −1.1% and 11.5%
  PAP decrease %: −29.7% and −24.2% and −26.3%
[2]; [6]
  BP decrease %: −6.9% and −6.4% and 1.2%
  PAP decrease %: −33.6% and −36.9% and −42.8%
[2]; [7]
  BP decrease %: −6.8% and 1.6% and 3.5%
  PAP decrease %: −19.9% and −22.8% and −21.7%
[2]; 100 μg/kg nominal dose inhaled
  BP decrease %: −4.5% and −9.9% and −3.1%
  PAP decrease %: −33.1% and −45.1% and −38.2%
[2]; comparative example 11 30 μg/kg inhaled
  efficacy regarding PAP on top of bosentan, sildenafil or riociguat: maintained its efficacy regarding PAP
[3]; 100 μg/kg nominal dose inhaled
  time of maximal effects after inhalation: 90 min
[3]; Inhalation I, Cycle 5
  % decrease delta PAP (maximal hypoxic PAP): 1.8%
  % increase AUCSaO2 (unwanted desaturation effect): −18.6%
[3]; Inhalation II, Cycle 6
  % decrease delta PAP (maximal hypoxic PAP): −19.6%
  % increase AUCSaO2 (unwanted desaturation effect): −39.4%
[3]; after inhaled (cycle 6) as well as i.v. application (cycles 7 and 8)
  hypoxia-induced increases in mean pulmonary artery pressure (mPAP): effectively reduced
[3]; i.v. application, 30 μg/kg and 100 μg/kg
  BP: expected drop in BP
[3]; inhaled application, 100 μg/kg nominal dose
  desaturation area (AUCSaO2): did not increase desaturation area
[3]; iv Bolus 30 μg
  % decrease delta PAP (maximal hypoxic PAP): −23.8%
  % increase AUCSaO2 (unwanted desaturation effect): 48.1%
[3]; iv Bolus 100 μg
  % decrease delta PAP (maximal hypoxic PAP): −14.3%
  % increase AUCSaO2 (unwanted desaturation effect): 282.8%
[3]; systemic (i.v.) application, 30 and 100 μg/kg
  desaturation area (AUCSaO2): dose dependent increase in desaturation area
Plasma proteins
  fraction unbound, times lower than comparative example 1: 10 times

From patent US12138256B2, “Treatment of cardiopulmonary disorders” (Bayer Aktiengesellschaft, priority 2021, dated 2024)
